Biological target: DDA1-DDB1ΔB-DCAF15Δpro triplex with R1R2 of RBM39 (Homo sapiens, UniProt Q14498+Q66K64, Q66K64:DEL276-383)
Test: TR-FRET, SPLAM-induced ternary complex formation, Eu-anti-His and APC-anti-FLAG
Type: binding

- EC50: 5 nM
Structure (SMILES): NS(=O)(=O)c1ccc(S(=O)(=O)Nc2cccc3c(Cl)c[nH]c23)cc1 [indisulam]

— paper doi:10.1101/758409v1 (biorxiv, 2019)
